Source: patent US4263255A, “Assay method and compounds” (Burroughs Wellcome Co., priority 1979, dated 1981)
Where a name gives a salt, the structure may show the parent alone. Where a SMILES comes first, the peptide text is derived from it. Where no end group is shown, it is not given here. [ ]: non-standard residue; d: D form.

Experiments:
opiate receptor [1] = experiment: Opiate receptor affinity by method of Pasternak et al. using tritiated naloxone, absence of sodium ions; type: binding
Description: *Method of Pasternak, G. W. et al., Molecular Pharmacology, 11, 340-351
(1975) using tritiated naloxone and in the absence of sodium ions; assays
performed at 4° C. in the presence of bacitracin (50 μg/ml) in
trishydrochloric acid buffer (50 mM, pH 7.4).
(§1) The opiate receptor IC50 (M) was ascertained by the method indicated in Example 1.
as §1

opiate receptor [2] = experiment: Specific binding affinity for the opiate receptor of the radio-iodinated peaks; settings: first peak (monoiodinated) compared with second peak (diiodinated)
Description: The material comprising this peak was applied to a Sephadex 2-(diethylamino)ethyl ether column and eluted with sodium borate buffer (12.5 mM, pH 9.0, 0.1 N sodium chloride).

[3] = TABLE 2 (Example 3), method indicated in Example 1: tritiated naloxone
[4] = table of Example 1, tritiated naloxone, 4° C., bacitracin 50 μg/ml, pH 7.4
[5] = TABLE 1 (Example 2), method indicated in Example 1: tritiated naloxone

Molecule	IC50 (opiate receptor [1]; [3]) [nM]	other results
CC(C)C[C@H](NC(=O)[C@H](Cc1ccccc1)NC(=O)[C@H](C)NC(=O)[C@@H](C)NC(=O)[C@@H](N)Cc1ccc(O)cc1)C(=O)O [(N), H . Tyr . D-Ala . Ala . Phe . Leu . OH HCl] (H-Y[dA]AFL-OH)	80	
CSCC[C@@H](NC(=O)[C@H](Cc1ccccc1)NC(=O)CNC(=O)CNC(=O)[C@@H](N)Cc1ccc(O)cc1)C(=O)O [(Z), H . Tyr . Gly . Gly . Phe . D-Met . OH HCl]	10	
CN[C@@H](Cc1ccc(O)cc1)C(=O)N[C@H](C)C(=O)NCC(=O)N[C@@H](Cc1ccccc1)C(=O)N[C@H](CC(C)C)C(N)=O [(X), H . MeTyr . D-Ala . Gly . Phe . D-Leu . NH2 HCl]	20	
CC(C)C[C@H](NC(=O)[C@H](Cc1ccccc1)NC(=O)CNC(=O)[C@@H](C)NC(=O)[C@@H](N)Cc1ccc(O)c([125I])c1)C(=O)O [material of the first peak, H.Tyr(3-^125 I).D-Ala.Gly.Phe.Leu.OH]		specific binding affinity (for the opiate receptor) (opiate receptor [2]): greater specific binding affinity
COC(=O)[C@@H](CC(C)C)NC(=O)[C@H](Cc1ccccc1)NC(=O)CNC(=O)CNC(=O)[C@@H](N)Cc1ccc(O)cc1 [(W), H . Tyr . Gly . Gly . Phe . D-Leu . OMe HCl]	60	
COC(=O)[C@H](CCSC)NC(=O)[C@H](Cc1ccccc1)NC(=O)CNC(=O)[C@@H](C)NC(=O)[C@@H](N)Cc1ccc(O)cc1 [(D), H . Tyr . D-Ala . Gly . Phe . Met . OMe]		IC50 (opiate receptor [1]; [5]): 5 nM
CCNC(=O)[C@@H](CC(C)C)NC(=O)[C@H](Cc1ccc(Cl)cc1)NC(=O)CNC(=O)[C@@H](C)NC(=O)[C@@H](N)Cc1ccc(O)cc1 [(A1), H . Tyr . D-Ala . Gly . Phe(4Cl) . D-Leu . NHEt HCl]	80	
CC(C)C[C@@H](NC(=O)[C@H](Cc1ccc(Cl)cc1)NC(=O)CNC(=O)[C@@H](C)NC(=O)[C@@H](N)Cc1ccc(O)cc1)C(=O)O [(K), H . Tyr . D-Ala . Gly . Phe (4Cl) . D-Leu . OH HCl]		IC50 (opiate receptor [1]; [5]): 1 nM
C[C@@H](NC(=O)[C@@H](N)Cc1ccc(O)cc1)C(=O)NCC(=O)N[C@@H](Cc1ccccc1)C(=O)N[C@H](C(=O)O)[C@@H](C)O [(Q), H . Tyr . D-Ala . Gly . Phe . Thr . OH HCl] (H-Y[dA]GFT-OH)	90	
COC(=O)[C@@H](CC(C)C)NC(=O)[C@H](Cc1ccc(Cl)cc1)NC(=O)CNC(=O)[C@@H](C)NC(=O)[C@@H](N)Cc1ccc(O)cc1 [(L), H . Tyr . D-Ala . Gly . Phe (4Cl) . D-Leu . OMe HCl]		IC50 (opiate receptor [1]; [5]): 2 nM
CC(C)C[C@H](NC(=O)[C@H](Cc1ccccc1)NC(=O)CNC(=O)[C@@H](C)NC(=O)[C@@H](N)Cc1ccc(O)cc1)C(=O)N[C@H](C(=O)O)[C@@H](C)O [(G), H . Tyr . D-Ala . Gly . Phe . Leu . Thr . OH HCl] (H-Y[dA]GFLT-OH)		IC50 (opiate receptor [1]; [5]): 8 nM
CC(C)C[C@@H](NC(=O)[C@H](Cc1ccccc1)NC(=O)CNC(=O)CNC(=O)[C@@H](N)Cc1ccc(O)cc1)C(=O)O [(P), H . Tyr . Gly . Gly . Phe . D-Leu . OH HCl]	25	
CSCC[C@H](NC(=O)[C@H](Cc1ccccc1)NC(=O)CNC(=O)[C@@H](C)NC(=O)[C@@H](N)Cc1ccc(O)cc1)C(=O)N[C@H](C(=O)O)[C@@H](C)O [(E), H . Tyr . D-Ala . Gly . Phe . Met . Thr . OH HCl] (H-Y[dA]GFMT-OH)		IC50 (opiate receptor [1]; [5]): 5.6 nM
YGGFV [(M), H . Tyr . Gly . Gly . Phe . Val . OH HCl]	80	
CCCC[C@H](NC(=O)[C@H](Cc1ccccc1)NC(=O)CNC(=O)CNC(=O)[C@@H](N)Cc1ccc(O)cc1)C(=O)O [(O), H . Tyr . Gly . Gly . Phe . Nle . OH HCl]	80	
CSCC[C@H](NC(=O)[C@H](Cc1ccccc1)NC(=O)CNC(=O)[C@@H](C)NC(=O)[C@@H](N)Cc1ccc(O)cc1)C(=O)O [(B), H . Tyr . D-Ala . Gly . Phe . Met . OH HCl]		IC50 (opiate receptor [1]; [4]): 3.8 nM
CSCC[C@@H](NC(=O)[C@H](Cc1ccccc1)NC(=O)CNC(=O)[C@@H](C)NC(=O)[C@@H](N)Cc1ccc(O)cc1)C(=O)N[C@H](C(=O)O)[C@@H](C)O [(S), H . Tyr . D-Ala . Gly . Phe . D-Met . Thr . OH HCl] (H-Y[dA]GF[dM]T-OH)	70	
COC(=O)[C@@H](CCSC)NC(=O)[C@H](Cc1ccccc1)NC(=O)CNC(=O)CNC(=O)[C@@H](N)Cc1ccc(O)cc1 [(Y), H . Tyr . Gly . Gly . Phe . D-Met . OMe HCl]	60	
CN[C@@H](Cc1ccc(O)cc1)C(=O)N[C@H](C)C(=O)NCC(=O)N[C@@H](Cc1ccccc1)C(=O)N[C@H](CC(C)C)C(=O)O [(V), H . MeTyr . D-Ala . Gly . Phe . D-Leu . OH HCl]	30	
CC(C)C[C@@H](NC(=O)[C@H](Cc1ccccc1)NC(=O)CNC(=O)[C@@H](C)NC(=O)[C@@H](N)Cc1ccc(O)cc1)C(=O)N[C@H](C(=O)O)[C@@H](C)O [(R), H . Tyr . D-Ala . Gly . Phe . D-Leu . Thr . OH HCl] (H-Y[dA]GF[dL]T-OH)	30	
CC(C)C[C@@H](NC(=O)[C@H](Cc1ccccc1)NC(=O)CNC(=O)[C@@H](C)NC(=O)[C@@H](N)Cc1ccc(O)cc1)C(=O)Oc1ccc(Cl)cc1 [(U), H . Tyr . D-Ala . Gly . Phe . D-Leu . p-chlorophenyl ester HCl]	50	
CSCC[C@@H](NC(=O)[C@H](Cc1ccccc1)NC(=O)CNC(=O)[C@@H](C)NC(=O)[C@@H](N)Cc1ccc(O)cc1)C(=O)O [(J), H . Tyr . D-Ala . Gly . Phe . D-Met . OH HCl]		IC50 (opiate receptor [1]; [5]): 8 nM
C[C@@H](NC(=O)[C@@H](N)Cc1ccc(O)cc1)C(=O)NCC(=O)N[C@@H](Cc1ccccc1)C(=O)O [(T), H . Tyr . D-Ala . Gly . Phe . OH HCl]	70	
